# Several values for one entry are separate records, joined by “and”; a condition that tells them apart may be missing. Identical values can stand only once. *1 amine or outer side, *2 acyl side, *3 side chain or, on linkers, in order; H or OH if unused. Where a SMILES comes first, the peptide text is derived from it. Bridges are numbered along the chain shown (N, C = ends). [ ]: non-standard residue; d: D form. The star is where a group is joined. pTerphenylCO(4''-OnC5H11) = CCCCCOc1ccc(-c2ccc(-c3ccc(C(=O)*)cc3)cc2)cc1; Orn(4R-OH,5R-OH) = O=C([C@H](C[C@@H](O)[C@@H](O)N[*:3])N[*:1])[*:2]; hTyr(3S-OH,4S-OH) = N[C@H](C(=O)O)[C@H](O)[C@@H](O)c1ccc(O)cc1; Pro(3S-OH,4S-Me) = C[C@H]1CN[C@H](C(=O)O)[C@H]1O; Hyp = O=C(O)[C@@H]1C[C@@H](O)CN1
# Experiments:
# CgBdf1 BD1 = CgBdf1 BD1 (Candida glabrata, UniProt Q6FWV7); experiment: HTRF assay, inhibition of H4ac4 peptide binding; set-up: species or system C. glabrata; conditions: Fig 1D/2A original data; single experiments Exp1-3
# Chain of CgBdf1 BD1 (Q6FWV7 entry or part of it): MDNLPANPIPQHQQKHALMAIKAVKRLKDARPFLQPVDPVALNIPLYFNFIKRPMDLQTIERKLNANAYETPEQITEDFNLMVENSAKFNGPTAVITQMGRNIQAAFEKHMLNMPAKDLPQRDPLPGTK
# [1] = tested on: C. glabrata expressing humanized Bdf1 (Brd4 BDs); experiment: Growth inhibition in liquid media, humanized C. glabrata strains; conditions: 50 µM, Exp 1-3
# Description: (§2) Growth on Liquid Media with C. glabrata Lab Strains: Cells were grown at 30 °C in SC+M+C‐U medium (SC medium with 5 mM methionine, 0.25 mM cysteine, without uracil) to an OD600 of 0.5–0.8. […] Plates were incubated at 30 °C and OD600 was measured using a Multiskan FC Microplate Photometer (Thermo Fisher).
# CgBdf1 BD2 = CgBdf1 BD2 (Candida glabrata, UniProt Q6FWV7); experiment: biochemical; format: binding, C. glabrata; conditions: Fig 1D/2A original data; single experiments Exp1-3
# Chain of CgBdf1 BD2 (Q6FWV7 entry or part of it): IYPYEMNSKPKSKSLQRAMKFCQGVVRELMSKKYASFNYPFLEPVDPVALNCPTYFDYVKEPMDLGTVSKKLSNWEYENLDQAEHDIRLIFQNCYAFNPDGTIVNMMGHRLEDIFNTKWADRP
# [2] = tested on: C. glabrata strains expressing WT and mutant Bdf1; experiment: Growth inhibition in liquid media, C. glabrata lab strains; conditions: Exp 1-3; for %Growth: 50 µM, WT BDF1-flag; for OD at 600 nm: Figure S4B
# Description: as §2
# [3] = tested on: C. glabrata strains (WT, pdr1∆ or PDR1 rescue); experiment: Growth assays to assess compound efflux; format: cell-based; conditions: for growth relative to Solvent = 100 (Figure S10B): compound 50 µM, three replicates
# Description: Cells from a single colony were diluted in 0.85% NaCl before being counted using a Neubauer chamber. […] The effect of fluconazole was tested by titration on these strains under similar conditions.
# [4] = tested on: C. albicans expressing WT Bdf1; experiment: Galleria fungal infection model, WT strain; format: in vivo, Galleria mellonella; set-up: key to survival event of one larva (1 = death 0 = no death): 1 = death; 0 = no death; conditions: Figure 6B
# Description: (§1) Galleria mellonella larvae were purchased from Decathlon (La Tronche, France). They were selected in the late larval stages weighing between 300 and 400 mg. Groups of 10 larvae were injected into the right or left last pro‐leg with 10 µl of either PBS, C. albicans suspensions or antifungal drug using an insulin syringe (BDUltra‐Fine 0.3 ml). C. albicans suspensions of the WT and humanized Bdf1 strains were adjusted to 10^6 cells larva^−1. Antifungal drugs (anidulafungin 5 mg kg^−1 or I‐BET726 66 or 44 mg kg^−1) were injected once 30 min before fungal infection. An infected control group received the C. albicans inoculum and the solvent of the drug. A non‐infected control group received only PBS. After inoculation, larvae were placed in Petri dishes and incubated in the dark at 37 °C. The larvae were monitored for 5 days, and survival outcome was determined. For experiments performed at the lower (44 mg kg^−1) dose of IBET‐726, the difference in protection against infection with humanized versus WT C. albicans strains was more evident using the survival data at 40 h rather than at 100 h post‐infection. Larvae were considered dead when no response was observed following touch. All experiments were performed at least 3 times independently. The significance of survival was assessed by a Log‐rank (Mantel‐Cox) test in GraphPad Prism 10.
# [5] = tested on: C. albicans expressing humanized Bdf1; experiment: Galleria fungal infection model, humanized strain; format: in vivo, Galleria mellonella; set-up: key to survival event of one larva (1 = death 0 = no death): 1 = death; 0 = no death; conditions: Figure 6C; Bdf1-hBD* strain; Time 8 hours
# Description: as §1
# [6] = biological target: S. cerevisiae histone H2A variant H2A.Z fused to LgBiT (UniProt Q12692); experiment: NanoBiT assay in live S. cerevisiae cells; conditions: parent: est. 1.0; read off a plot
compound,measurement,setting,value
"Cc1sc2c(c1C)C(c1ccc(Cl)cc1)=N[C@@H](CC(=O)OC(C)(C)C)c1nnc(C)n1-2 [JQ1, reference compound]",pIC50 CgBD1,CgBdf1 BD1,5.18 and 5.05 and 5.03
same,%Growth,"[1]; Fig 3D, humanized BDF1-flag",46.0% and 39.6% and 43.2%
same,%Growth,"[1]; Fig 3E, BDF1-hBD1-flag",83% and 74% and 78%
same,%Growth,"[1]; Fig 3E, BDF1-hBD2-flag",91% and 86%
same,%Growth,"[1]; Fig 3E, humanized BDF1-flag",46% and 40% and 43%
same,pIC50 CgBD2,CgBdf1 BD2,6.15 and 6.10 and 6.13
same,%Growth,[2]; Fig 3D,112.7% and 106.1% and 114.4%
same,%Growth,[2]; Fig 3E,113% and 106% and 114%
same,OD at 600 nm,[2]; WT BDF1 strain,0.392 and 0.386 and 0.385
same,OD at 600 nm,[2]; bdf1-bd1Δ strain,0.328 and 0.347 and 0.329
same,OD at 600 nm,[2]; bdf1-bd2Δ strain,0.195 and 0.225 and 0.183
same,activity against PDR1 deletion strain versus WT/rescue,"[3]; 50 µM (I-BET726 1 µM), 20 h",increased efficacy
COc1cc(OC)c2c(=O)[nH]c(-c3cc(C)c(OCCO)c(C)c3)nc2c1 [RVX208],%Growth,"[1]; Fig 3E, BDF1-hBD1-flag",95% and 91% and 88%
same,%Growth,"[1]; Fig 3E, BDF1-hBD2-flag",94% and 82% and 93%
same,%Growth,"[1]; Fig 3E, humanized BDF1-flag",80% and 88% and 77%
same,%Growth,[2]; Fig 3E,91% and 96%
same,growth relative to Solvent = 100 (Figure S10B),[3]; PDR1 Rescue,70.1855 and 71.3614 and 82.784
same,growth relative to Solvent = 100 (Figure S10B),[3]; WT,80.2726 and 64.9447 and 62.8512
same,growth relative to Solvent = 100 (Figure S10B),[3]; pdr1∆,66.409 and 64.9859 and 67.3918
"CCCCCOc1ccc(-c2ccc(-c3ccc(C(=O)N[C@H]4C[C@@H](O)[C@@H](O)NC(=O)[C@@H]5[C@@H](O)[C@@H](C)CN5C(=O)[C@H]([C@@H](C)O)NC(=O)[C@H]([C@H](O)[C@@H](O)c5ccc(O)cc5)NC(=O)[C@@H]5C[C@@H](O)CN5C(=O)[C@H]([C@@H](C)O)NC4=O)cc3)cc2)cc1 [anidula-fungin] ({pTerphenylCO(4''-OnC5H11)}-[Orn(4R-OH,5R-OH)]T[Hyp][hTyr(3S-OH,4S-OH)]T[Pro(3S-OH,4S-Me)]; lactam 1-C)",survival event of one larva (1 = death 0 = no death),[4]; Time 10 hours,1
same,survival event of one larva (1 = death 0 = no death),[4]; Time 35 hours,1
same,survival event of one larva (1 = death 0 = no death),[4]; Time 50 hours,1
"CCCCCOc1ccc(-c2ccc(-c3ccc(C(=O)N[C@H]4C[C@@H](O)[C@@H](O)NC(=O)[C@@H]5[C@@H](O)[C@@H](C)CN5C(=O)[C@H]([C@@H](C)O)NC(=O)[C@H]([C@H](O)[C@@H](O)c5ccc(O)cc5)NC(=O)[C@@H]5C[C@@H](O)CN5C(=O)[C@H]([C@@H](C)O)NC4=O)cc3)cc2)cc1 [anidulafungin] ({pTerphenylCO(4''-OnC5H11)}-[Orn(4R-OH,5R-OH)]T[Hyp][hTyr(3S-OH,4S-OH)]T[Pro(3S-OH,4S-Me)]; lactam 1-C)",survival event of one larva (1 = death 0 = no death),[5],1
C. glabrata Bdf1-SmBiT expressed in S. cerevisiae Y166F; Y343F,ratio to parent,[6],0.27

# — publication PMC11904993, “Humanized Candida and NanoBiT Assays Expedite Discovery of Bdf1 Bromodomain Inhibitors With Antifungal Potential” (Advanced Science, 2025)
